Data from patent publication US12024707B2, “Methods and compositions for modulating lncRNAs and methods of treatment based on lncRNA expression” (Washington University, priority 2020, dated 2024).
Structures can show the parent of a compound that is named as a salt.

Test system: HT29 RAMS11 overexpressing cells
Assay: High-throughput viability assay (resazurin), 119 FDA-approved anticancer drugs, RAMS11 overexpressing cells (Clone1, Clone2)
Settings: for Viability Fold Change: 72 h, vs empty vector control
[1] = OE1 (RAMS11 overexpression clone 1), 0.1 uM drug
[2] = OE1 (RAMS11 overexpression clone 1), 1 uM drug
[3] = OE1 (RAMS11 overexpression clone 1), 10 uM drug
[4] = OE2 (RAMS11 overexpression clone 2), 0.1 uM drug
[5] = OE2 (RAMS11 overexpression clone 2), 1 uM drug
[6] = OE2 (RAMS11 overexpression clone 2), 10 uM drug

Description: The FDA-approved anticancer panel included multiple classes of drugs such as kinase inhibitors, alkylating agents, antineoplastic antibiotics, anthracycline antibiotics, and antineoplastic agents (topoisomerase inhibitors). The HT29 RAMS11 overexpressing and control cells were treated for 72 h to assess cellular viability upon drug treatment (FIG. 14a and TABLE 3). […] Due to 5-FU commonly used to treat mCRC, we further determined if RAMS11 expression altered drug sensitivity in treated cells.
Drugs were diluted in DMSO to 1 mM and the well assignments were rearranged so drugs were confined to the inner 60 wells of 96-well plates. […] The next day serial diluted drug was added to pre-seeded plates in media containing 1% DMSO vehicle, using a Robbins Hydra 96 micro dispenser. Two 96-well plates of cells were used as vehicle controls. The plates were incubated for 3 days. Percent viability was scored by incubating cells for 3 h with resazurin sodium (0.023 mg/mL, Sigma R7017). The reaction was stopped by the addition of SDS (1% final concentration). Fluorescence Ex/Em 540/590 was read in a Biotek Synergy H1 plate reader (Winooski, VT). The fluorescence values for the vehicle plates were averaged and percent viability was determined by the formula: Percent viability=(average vehicle−value)/(average vehicle−average resazurin in media blank)×100. […] Assays were repeated more than three times.

| SMILES | Viability Fold Change [1] | Viability Fold Change [2] | Viability Fold Change [3] | Viability Fold Change [4] | Viability Fold Change [5] | Viability Fold Change [6] | increase in drug resistance in HT29 RAMS11 overexpressing cells (topoisomerase inhibitors, vs empty vector cells) |
| --- | --- | --- | --- | --- | --- | --- | --- |
| CS(=O)(=O)OCCCCOS(C)(=O)=O [Busulfan] | 1.001 | 0.9365 | 0.8448 | 0.977 | 0.9369 | 0.871 |  |
| Nc1ccn([C@@H]2O[C@H](CO)[C@@H](O)[C@@H]2O)c(=O)n1 [Cytarabine hydrochloride] | 0.9825 | 1.254 | 1.524 | 0.9917 | 1.381 | 1.876 |  |
| Cn1c(CCCC(=O)O)nc2cc(N(CCCl)CCCl)ccc21 [Bendamustine hydrochloride] | 0.8888 | 0.9725 | 0.935 | 1.01 | 0.9036 | 0.899 |  |
| CC/C(=C(\c1ccccc1)c1ccc(OCCN(C)C)cc1)c1ccccc1 [Tamoxifen Citrate] | 1.127 | 1.144 | 1.077 | 1.097 | 1.08 | 1.059 |  |
| CCCCC(=O)OCC(=O)[C@]1(O)Cc2c(O)c3c(c(O)c2[C@@H](O[C@H]2C[C@H](NC(=O)C(F)(F)F)[C@H](O)[C@H](C)O2)C1)C(=O)c1c(OC)cccc1C3=O [Valrubicin] | 0.9645 | 1.163 | 1.863 | 0.9166 | 1.213 | 1.792 |  |
| Cc1ccc(-c2cc(C(F)(F)F)nn2-c2ccc(S(N)(=O)=O)cc2)cc1 [Celecoxib] | 0.8767 | 0.9228 | 0.9797 | 0.948 | 0.9628 | 0.9848 |  |
| Oc1ncnc2[nH]ncc12 [Allopurinol] | 0.8682 | 0.9042 | 0.776 | 0.9002 | 0.8635 | 0.8648 |  |
| CO[C@H]1C[C@@H]2CC[C@@H](C)[C@@](O)(O2)C(=O)C(=O)N2CCCC[C@H]2C(=O)O[C@H]([C@H](C)C[C@@H]2CC[C@@H](O)[C@H](OC)C2)CC(=O)[C@H](C)/C=C(\C)[C@@H](O)[C@@H](OC)C(=O)[C@H](C)C[C@H](C)/C=C/C=C/C=C/1C [Rapamycin] | 0.7003 | 0.7403 | 0.7222 | 0.6232 | 0.772 | 0.7575 |  |
| COc1cccc2c1C(=O)c1c(O)c3c(c(O)c1C2=O)C[C@@](O)(C(C)=O)C[C@@H]3O[C@H]1C[C@H](N)[C@H](O)[C@H](C)O1 [daunorubicin HCl, reference compound] | 1.103 | 2.258 | 3.761 | 1.084 | 2.098 | 3.726 | at least a two-fold increase in drug resistance |
| C[C@@H](Oc1cc(-c2cnn(C3CCNCC3)c2)cnc1N)c1c(Cl)ccc(F)c1Cl [Crizotinib] | 0.9595 | 1.07 | 0.9127 | 0.9806 | 1.093 | 0.8562 |  |
| Clc1ccc(C(c2ccccc2Cl)C(Cl)Cl)cc1 (stereo not shown) [Mitotane] | 0.8185 | 0.9667 | 0.9105 | 0.9482 | 0.9714 | 0.987 |  |
